These results are taken from patent publication US11708344B2, “Flavone derivatives for the treatment and prophylaxis of hepatitis B virus disease” (Hoffmann-La Roche Inc., priority 2018, dated 2023).

Data set [1] in a line: Human microsome stability assay. It is filed as in vitro ADME. The settings on record: human liver microsomes, 1 μM test compound, 0.5 mg/mL microsomal protein, 37° C., pH 7.4, 0-30 minutes. A digest of the protocol:
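Compound (1 μM) incubated at 37 °C with human liver microsomes (0.5 mg/mL protein) in 100 mM potassium phosphate, pH 7.4, after 10 min preincubation; started with NADPH regenerating system. Sampled at 0–30 min, quenched with cold ACN; remaining parent quantified by LC-MS/MS, with no-NADPH controls.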
Background: Microsomes from liver hold many membrane-bound enzymes, among them those of drug oxidation.

Data set [2] relates to HBeAg (surrogate marker for cccDNA) in HepDES19 cells. Nature of the data set: Engineered HepDES19 primary screen assay (HBeAg ELISA). The class given is cell-based, HBV. As to conditions: Hepatitis B virus, HepDES19, 120 h, read-out: IC50 (HBeAg level, HepDES19 primary screen assay), HepDES19 cells, 5 days compound incubation, HBeAg ELISA. The essentials:
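HepDES19 cells were induced by Tet withdrawal for 8 days, then treated with half-log compound dilutions (1% DMSO final) for 5 days at 37 °C. HBeAg was measured by ELISA as the cccDNA surrogate, viability by CCK-8, and IC50 from a 4-parameter logistic fit.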
On the technique in general: In an ELISA, binding on a coated surface is turned into a signal by an enzyme label.

The subject of data set [3] is HBsAg in HBV-infected PHH. In words: Cryopreserved primary human hepatocytes (PHH) HBV infection assay, extracellular HBsAg (CLIA). It is filed as cell-based. The settings on record: Hepatitis B virus, Hepatocyte, 216 h, read-out: HBsAg IC50, Cryopreserved PHH infected with HBV, 9 days post-compound treatment, extracellular HBsAg. The essentials: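 Cryopreserved PHH were infected with 5.8×10^6 HBV genome equivalents in medium with 4% PEG8000 and 1% DMSO. After 9 days of treatment, extracellular HBsAg was measured by CLIA, and IC50 was derived from a 4-parameter logistic fit.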

SMILES strings stand for the structures.

In general, IC50 refers to the midpoint of a concentration-inhibition curve. Turning to `O=c1cc(-c2cc(F)ccc2OCCO[C@H]2C[C@@H](C(=O)O)C2)oc2c(Cl)cccc12` [Example C033-A, Cis-3-[2-[2-(8-chloro-4-oxo-chromen-2-yl)-4-fluoro-phenoxy]ethoxy]cyclobutanecarboxylic acid], in data set [1], the “Clearance of Human microsome” value worked out at 6.15 mL/min/kg. For the same molecule, the IC50 in data set [2] worked out at 1.34 µM; in data set [3], 1.97 µM.
For `O=c1cc(-c2cc(F)ccc2OCCO[C@H]2C[C@H](C(=O)O)C2)oc2c(Cl)cccc12` [Example C033-B, Trans-3-[2-[2-(8-chloro-4-oxo-chromen-2-yl)-4-fluoro-phenoxy]ethoxy]cyclobutanecarboxylic acid], in that order: 6.15 mL/min/kg, 0.927 µM and 4.33 µM.
For `O=c1cc(-c2ccc(F)cc2OCCO[C@H]2C[C@@H](C(=O)O)C2)oc2c(Cl)cccc12` [Example C034-A, Cis-3-[2-[2-(8-chloro-4-oxo-chromen-2-yl)-5-fluoro-phenoxy]ethoxy]cyclobutanecarboxylic acid], in that order: 6.15 mL/min/kg, 0.526 µM and 4.69 µM.
For `O=c1cc(-c2ccc(F)cc2OCCO[C@H]2C[C@H](C(=O)O)C2)oc2c(Cl)cccc12` [Example C034-B, Trans-3-[2-[2-(8-chloro-4-oxo-chromen-2-yl)-5-fluoro-phenoxy]ethoxy]cyclobutanecarboxylic acid], in that order: 6.75 mL/min/kg, 1.81 µM and 9.11 µM.
As to `O=c1cc(-c2ccccc2OCCO[C@H]2C[C@@H](C(=O)O)C2)oc2c(Cl)cc(F)cc12` [Example C036-A, Cis-3-[2-[2-(8-chloro-6-fluoro-4-oxo-chromen-2-yl)phenoxy]ethoxy]cyclobutanecarboxylic acid], the “Clearance of Human microsome” value in data set [1] is given as 6.15 mL/min/kg. Further, the half-inhibitory concentration (IC50) in data set [2] was found to be 0.261 µM; in data set [3], 2.42 µM.
Consider `O=c1cc(-c2ccccc2OCCO[C@H]2C[C@H](C(=O)O)C2)oc2c(Cl)cc(F)cc12` [Example C036-B, Trans-3-[2-[2-(8-chloro-6-fluoro-4-oxo-chromen-2-yl)phenoxy]ethoxy]cyclobutanecarboxylic acid], for which the “Clearance of Human microsome” value in data set [1] turned out to be 6.15 mL/min/kg. For the same molecule, the IC50 worked out at 0.77 µM in data set [2] and 5.58 µM in data set [3].
As for `Cc1ccc(-c2cc(=O)c3cccc(Cl)c3o2)c(OCCO[C@H]2C[C@@H](C(=O)O)C2)c1` [Example C038-A, Cis-3-[2-[2-(8-chloro-4-oxo-chromen-2-yl)-5-methyl-phenoxy]ethoxy]cyclobutanecarboxylic acid], in data set [1], the “Clearance of Human microsome” value was found to be 6.15 mL/min/kg. Moreover, the IC50 stood at 0.643 µM in data set [2] and 8.61 µM in data set [3].
For `O=c1cc(-c2cc(C(F)(F)F)c(Br)cc2OCCO[C@H]2C[C@H](C(=O)O)C2)oc2c(Cl)cccc12` [Example C042-B], in that order: 6.15 mL/min/kg, 15.3 µM and 8.96 µM.
For `O=c1cc(-c2cc3c(cc2OCCO[C@H]2C[C@@H](C(=O)O)C2)OCO3)oc2c(Cl)cccc12` [Example C043-A, Cis-3-[2-[[6-(8-chloro-4-oxo-chromen-2-yl)-1,3-benzodioxo1-5-yl]oxy]ethoxy]cyclobutanecarboxylic acid], in data set [1], the “Clearance of Human microsome” value is given as 6.15 mL/min/kg. For the same molecule, the IC50 was determined as 2.68 µM in data set [2] and 8.67 µM in data set [3].
For `O=c1cc(-c2cc3c(cc2OCCO[C@H]2C[C@H](C(=O)O)C2)OCO3)oc2c(Cl)cccc12` [Example C043-B, Trans-3-[2-[[6-(8-chloro-4-oxo-chromen-2-yl)-1,3-benzodioxo1-5-yl]oxy]ethoxy]cyclobutanecarboxylic acid], in that order: 7.72 mL/min/kg, 9.42 µM and 5.2 µM.
For `O=c1cc(-c2cc(F)c(Br)cc2OCCO[C@H]2C[C@@H](C(=O)O)C2)oc2c(Cl)cccc12` [Example C044-A, Cis-3-[2-[5-bromo-2-(8-chloro-4-oxo-chromen-2-yl)-4-fluoro-phenoxy]ethoxy]cyclobutanecarboxylic acid], in that order: 6.15 mL/min/kg, 2.01 µM and 9.58 µM.
For `O=C1CCCN1c1ccc(-c2cc(=O)c3cccc(Cl)c3o2)c(OCCO[C@H]2C[C@@H](C(=O)O)C2)c1` [Example C063-A, Cis-3-[2-[2-(8-chloro-4-oxo-chromen-2-yl)-5-(2-oxopyrrolidin-1-yl)phenoxy]ethoxy]cyclobutanecarboxylic acid], in that order: 9.09 mL/min/kg, 4.95 µM and 6.61 µM.
With `COc1cc(-c2cc(=O)c3cccc(Cl)c3o2)c(OCCO[C@H]2C[C@@H](C(=O)O)C2)cc1Br` [Example C073, Cis-3-[2-[5-bromo-2-(8-chloro-4-oxo-chromen-2-yl)-4-methoxy-phenoxy]ethoxy]cyclobutanecarboxylic acid], the “Clearance of Human microsome” value in data set [1] is 7.85 mL/min/kg. The IC50 was 0.92 µM in data set [2] and 7.56 µM in data set [3].
For `CCCOc1cc(OCCO[C@H]2C[C@@H](C(=O)O)C2)c(-c2cc(=O)c3cccc(Cl)c3o2)cc1OC` [Example C077, Cis-3-[2-[2-(8-chloro-4-oxo-chromen-2-yl)-4-methoxy-5-propoxy-phenoxy]ethoxy]cyclobutanecarboxylic acid], in that order: 6.15 mL/min/kg, 3.21 µM and 9.37 µM.
For `CCOc1cc(OCCO[C@H]2C[C@@H](C(=O)O)C2)c(-c2cc(=O)c3cccc(Cl)c3o2)cc1OC` [Example C078, Cis-3-[2-[2-(8-chloro-4-oxo-chromen-2-yl)-5-ethoxy-4-methoxy-phenoxy]ethoxy]cyclobutanecarboxylic acid], in that order: 6.15 mL/min/kg, 15 µM and 6.32 µM.
Consider `COc1cc(-c2cc(=O)c3cccc(Cl)c3o2)c(OCCO[C@H]2C[C@@H](C(=O)O)C2)cc1OCC(F)(F)F` [Example C080, Cis-3-[2-[2-(8-chloro-4-oxo-chromen-2-yl)-4-methoxy-5-(2,2,2-trifluoroethoxy)phenoxy]ethoxy]cyclobutanecarboxylic acid], for which the “Clearance of Human microsome” value in data set [1] came to 6.15 mL/min/kg. Also, the figures for the IC50 in data set [2] and in data set [3] were 4 µM and 3.51 µM, respectively.
For `COc1cc(-c2cc(=O)c3cccc(Cl)c3o2)c(OCCO[C@H]2C[C@@H](C(=O)O)C2)cc1OC(F)F` [Example C081, Cis-3-[2-[2-(8-chloro-4-oxo-chromen-2-yl)-5-(difluoromethoxy)-4-methoxy-phenoxy]ethoxy]cyclobutanecarboxylic acid], in that order: 6.15 mL/min/kg, 0.779 µM and 8.77 µM.
For `COc1cc(OCCO[C@H]2C[C@@H](C(=O)O)C2)c(-c2cc(=O)c3cccc(Cl)c3o2)cc1OCC1CC1` [Example C082, cis-3-[2-[2-(8-chloro-4-oxo-chromen-2-yl)-4-(cyclopropylmethoxy)-5-methoxy-phenoxy]ethoxy]cyclobutanecarboxylic acid], in that order: 6.15 mL/min/kg, 3.97 µM and 9.52 µM.
For `CCOc1cc(-c2cc(=O)c3cccc(Cl)c3o2)c(OCCO[C@H]2C[C@@H](C(=O)O)C2)cc1OC` [Example C084, cis-3-[2-[2-(8-chloro-4-oxo-chromen-2-yl)-4-ethoxy-5-methoxy-phenoxy]ethoxy]cyclobutanecarboxylic acid], in that order: 6.15 mL/min/kg, 15.1 µM and 5.21 µM.
Turning to `COc1cc(OCCO[C@H]2C[C@@H](C(=O)O)C2)c(-c2cc(=O)c3cccc(Cl)c3o2)cc1OCC(F)(F)F` [Example C085, cis-3-[2-[2-(8-chloro-4-oxo-chromen-2-yl)-5-methoxy-4-(2,2,2-trifluoroethoxy)phenoxy]ethoxy]cyclobutanecarboxylic acid], the “Clearance of Human microsome” value in data set [1] is given as 6.15 mL/min/kg. For the same molecule, the IC50 in data set [2] was 0.271 µM; in data set [3], 9.02 µM.
For `COc1cc(OCCO[C@H]2C[C@@H](C(=O)O)C2)c(-c2cc(=O)c3cccc(Cl)c3o2)cc1OC(F)F` [Example C086, cis-3-[2-[2-(8-chloro-4-oxo-chromen-2-yl)-4-(difluoromethoxy)-5-methoxy-phenoxy]ethoxy]cyclobutanecarboxylic acid], in that order: 6.15 mL/min/kg, 5.03 µM and 5.46 µM.
In the case of `COc1cc(OCCO[C@H]2C[C@@H](C(=O)O)C2)c(-c2cc(=O)c3c(C(F)(F)F)ccc(Cl)c3o2)cc1OC` [Example C096, Cis-3-[2-[2-[8-chloro-4-oxo-5-(trifluoromethyl)chromen-2-yl]-4,5-dimethoxy-phenoxy]ethoxy]cyclobutanecarboxylic acid], the “Clearance of Human microsome” value in data set [1] stood at 6.15 mL/min/kg. Besides, the IC50 turned out to be 3.48 µM in data set [2] and 7.78 µM in data set [3].
